One compound from US20230250054A1, “SELECTIVE HISTONE DEACETYLASE 6 INHIBITORS” (The Board of Trustees of the University of Illinois, priority 2020, published 2023) can be followed below.

Data set [1] deals with SM1 melanoma tumors. The data set is described as follows: Syngeneic SM1 murine melanoma model, tumor growth. Type of data set: in vivo. The following applies: C57BL/6 mice with SM1 tumors; Suprastat 25 mg/kg IP, anti-PD1 15 mg/kg IP; vs control (PBS).
The test system of data set [2] is IL10 gene. The data set is described as follows: IL10 gene expression by quantitative PCR in bone marrow-derived macrophages. It is filed as cell-based. To be noted: mouse bone marrow-derived macrophages, 5 μM, vs vehicle, mRNA quantification. Here is the method: Total RNA was isolated from cells following the manufacturer's instructions of QIAzol (Qiagen, 79306). RNA quantification was done using NanoDrop One spectrophotometer (NanoDrop Technologies). Samples with absorbance at 260/280 ratios over 1.9 were used for cDNA synthesis with iScript cDNA synthesis kit (Bio-Rad, 1708891). Synthesized cDNA from 1 μg of total RNA was diluted 1:10 with nuclease-free water. The quantitative PCR analysis was performed using iQ SYBR Green Supermix (Bio-Rad, 1708882) on CFX96 real-time system (Bio-Rad). Gene expression analysis was performed using 2^−ΔΔCt method, and target mRNA levels were normalized to GAPDH expression. Cycling conditions were used as per manufacturer's instructions. Single PCR product amplification was confirmed by melting curve analysis in all the experiments performed. The sequence of primers used in the analysis are as follows: […]
Immune cells, such as macrophages, are a major cellular component of the tumor microenvironment. Tumor-associated macrophages are often tumor promoting by secreting anti-inflammatory cytokines such as TGFβ and IL-10. It was previously established that HDAC6 forms a complex with STAT3, and either pharmacological inhibition or shRNA mediated knockdown of HDAC6 decreased STAT3 recruitment at the IL10 promoter region in antigen-presenting cells (see, e.g., Cheng et al., J. Immunol. 193: 2850-2862 (2014)). […]

Data set [3] is described as follows: physchem. To be noted: PBS.
The subject of data set [4] is Ac-α-tubulin. Description: Immunoblot of Ac-α-tubulin in RAW 264.7 macrophages. Type of data set: cell-based. To be noted: 1, 5, and 10 μM, overnight, listed as Suprastat. The method, then:
The SM1 murine melanoma cells were obtained from Dr. A. Ribas at the University of California, Los Angeles. WM164 human melanoma cells were obtained from ATCC. The cells were cultured in an incubator in RPMI 1640, 1% penicillin-streptomycin, and 10% fetal bovine serum at 37° C. with 5% CO2. […] For STAT3 phosphorylation assays, cells were pre-treated with or without HDAC6i (5 μM) for overnight followed by treatment with recombinant human IL-6 (Biolegend) for 20 min. PBS was added as a control. RAW 264.7 macrophages were purchased from ATCC and cultured in DMEM medium supplemented with 10% FBS, 1% non-essential amino acids, and 2-mercaptoethanol (50 μM). […] Cytotoxicity assay was performed using CellTox Green (Promega, Cat #G8731) following the manufacturer's instructions, and fluorescence readings were obtained on Spectramax i3 (Molecular Devices) multimode plate reader at wavelengths EX 485 nm and EM 520 nm. […]
The cells were harvested and lysed with RIPA buffer (ThermoScientific, 89900) containing protease and phosphatase inhibitors (ThermoScientific, 78440) by sonication in Bioruptor (Diagenode) for 8 cycles of 30 seconds ON and 30 seconds OFF on high setting. To assess the expression of proteins, total protein samples were heat-denatured in SDS sample loading buffer, and 15-20 μg of protein was analysed on 4-20% SDS-PAGE gels (Bio-Rad, 456-1093). […]
A general note: In western blotting, separated proteins are transferred to a membrane and probed.

Each structure is given as a SMILES string. Entries after “also recorded” stand apart in the source; their conditions may differ. Bounds are passed on as bounds.

As to `NCc1ccc(NC(=O)N(CCCCO)Cc2ccc(C(=O)NO)cc2)cc1` [Compound 6a, 4-((3-(4-(Aminomethyl)phenyl)-1-(4-hydroxybutyl)ureido)methyl)-N-hydroxybenz-amide], the “tumor burden (tumor volume)” value in data set [1] is given as “reduced the tumor burden”. Besides, the “expression of IL10 gene” value in data set [2] is given as “decreased expression of IL10 gene”. The half-life (usually the time in which the quantity being followed falls by half) in data set [3] is greater than 24 h. For the same compound, the “levels of Ac-α-tubulin in RAW 264.7 macrophages” value in data set [4] was “dose-dependent effect; also recorded: dose-dependent increase in the levels of Ac-α-tubulin”.
